Reference: PubChem BioAssay (NCI)
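In this assay, cells in 96-well plates receive the compound at five concentrations for 48 hours. Endpoints are linearly interpolated between the surrounding concentrations. TGI is the concentration that stops growth completely.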

Tests used:
Assay in all cases: growth of human tumour cells (NCI), 48 h
M14 melanoma = system: M14 melanoma
HCC-2998 colon = system: HCC-2998 colon
MCF7 breast = system: MCF7 breast
LOX IMVI melanoma = system: LOX IMVI melanoma
HL-60(TB) leukemia = system: HL-60(TB) leukemia
DU-145 prostate = system: DU-145 prostate
UACC-257 melanoma = system: UACC-257 melanoma
CCRF-CEM leukemia = system: CCRF-CEM leukemia
MALME-3M melanoma = system: MALME-3M melanoma
BT-549 breast = system: BT-549 breast
NCI-H23 lung = system: NCI-H23 lung
SR leukemia = system: SR leukemia
UO-31 renal = system: UO-31 renal
SF-295 CNS = system: SF-295 CNS
NCI-H226 lung = system: NCI-H226 lung
OVCAR-8 ovarian = system: OVCAR-8 ovarian
SNB-75 CNS = system: SNB-75 CNS
OVCAR-4 ovarian = system: OVCAR-4 ovarian
NCI-H522 lung = system: NCI-H522 lung

COc1ccc(N2C(=O)CC(c3c[nH]c4ccccc34)C2=O)cc1 (stereo not given)
TGI (M14 melanoma): > 100 µM
TGI (HCC-2998 colon): > 100 µM
TGI (MCF7 breast): > 100 µM
TGI (LOX IMVI melanoma): > 100 µM
TGI (HL-60(TB) leukemia): > 100 µM
TGI (DU-145 prostate): > 100 µM
TGI (UACC-257 melanoma): > 100 µM
TGI (CCRF-CEM leukemia): > 100 µM
TGI (MALME-3M melanoma): > 100 µM
TGI (BT-549 breast): > 100 µM
TGI (NCI-H23 lung): > 100 µM
TGI (SR leukemia): > 100 µM
TGI (UO-31 renal): > 100 µM
TGI (SF-295 CNS): > 100 µM
TGI (NCI-H226 lung): > 100 µM
TGI (OVCAR-8 ovarian): > 100 µM

CC1(c2nc3cc(Cl)c(Cl)cc3[nH]2)CCC(C(=O)O)C(C)(C)O1 (stereo not given)
TGI (M14 melanoma): > 100 µM
TGI (HCC-2998 colon): > 100 µM
TGI (MCF7 breast): > 100 µM
TGI (LOX IMVI melanoma): > 100 µM
TGI (HL-60(TB) leukemia): > 100 µM
TGI (DU-145 prostate): > 100 µM
TGI (UACC-257 melanoma): > 100 µM
TGI (SNB-75 CNS): > 100 µM
TGI (CCRF-CEM leukemia): > 100 µM
TGI (MALME-3M melanoma): > 100 µM
TGI (BT-549 breast): > 100 µM
TGI (NCI-H23 lung): > 100 µM
TGI (OVCAR-4 ovarian): > 100 µM
TGI (SR leukemia): > 100 µM
TGI (UO-31 renal): > 100 µM
TGI (NCI-H522 lung): > 100 µM
TGI (SF-295 CNS): > 100 µM
TGI (NCI-H226 lung): > 100 µM
TGI (OVCAR-8 ovarian): > 100 µM

COC(=O)c1cc(/C=C2\Cc3cc4c(cc3C2=O)CCC4)cc2c1CCC2
TGI (M14 melanoma): > 100 µM
TGI (HCC-2998 colon): > 100 µM
TGI (MCF7 breast): > 100 µM
TGI (LOX IMVI melanoma): > 100 µM
TGI (HL-60(TB) leukemia): > 100 µM
TGI (DU-145 prostate): > 100 µM
TGI (UACC-257 melanoma): > 100 µM
TGI (SNB-75 CNS): > 100 µM
TGI (CCRF-CEM leukemia): > 100 µM
TGI (MALME-3M melanoma): > 100 µM
TGI (BT-549 breast): > 100 µM
TGI (NCI-H23 lung): > 100 µM
TGI (OVCAR-4 ovarian): > 100 µM
TGI (SR leukemia): > 100 µM
TGI (UO-31 renal): > 100 µM
TGI (NCI-H522 lung): > 100 µM
TGI (SF-295 CNS): > 100 µM
TGI (NCI-H226 lung): > 100 µM
TGI (OVCAR-8 ovarian): > 100 µM

CN(C)CC1CN(C(=O)Nc2ccccc2)C(=N)O1 (stereo not given)
TGI (M14 melanoma): > 100 µM
TGI (HCC-2998 colon): > 100 µM
TGI (MCF7 breast): > 100 µM
TGI (LOX IMVI melanoma): > 100 µM
TGI (HL-60(TB) leukemia): > 100 µM
TGI (DU-145 prostate): > 100 µM
TGI (UACC-257 melanoma): > 100 µM
TGI (SNB-75 CNS): > 100 µM
TGI (CCRF-CEM leukemia): > 100 µM
TGI (MALME-3M melanoma): > 100 µM
TGI (BT-549 breast): > 100 µM
TGI (NCI-H23 lung): > 100 µM
TGI (OVCAR-4 ovarian): > 100 µM
TGI (SR leukemia): > 100 µM
TGI (UO-31 renal): > 100 µM
TGI (NCI-H522 lung): > 100 µM
TGI (SF-295 CNS): > 100 µM
TGI (NCI-H226 lung): > 100 µM
TGI (OVCAR-8 ovarian): > 100 µM

Cc1ccc(S(=O)(=O)N/N=C2/CC[C@H](C(C)(C)C)C[C@@H]2C)cc1
TGI (M14 melanoma): 26.6 µM
TGI (HCC-2998 colon): 33.5 µM
TGI (MCF7 breast): 32.8 µM
TGI (LOX IMVI melanoma): 27.9 µM
TGI (HL-60(TB) leukemia): > 100 µM
TGI (DU-145 prostate): 30.3 µM
TGI (UACC-257 melanoma): 27 µM
TGI (SNB-75 CNS): 39 µM
TGI (CCRF-CEM leukemia): 38.8 µM
TGI (MALME-3M melanoma): 29.8 µM
TGI (BT-549 breast): 29.8 µM
TGI (NCI-H23 lung): 36.8 µM
TGI (OVCAR-4 ovarian): 20 µM
TGI (SR leukemia): > 100 µM
TGI (UO-31 renal): 26.6 µM
TGI (SF-295 CNS): 29.2 µM
TGI (NCI-H226 lung): 28.3 µM
TGI (OVCAR-8 ovarian): 29.9 µM

Clc1ccc(-c2cc(-c3nc4ccccc4[nH]3)no2)cc1
TGI (M14 melanoma): 34.6 µM
TGI (HCC-2998 colon): 33.5 µM
TGI (MCF7 breast): 31 µM
TGI (LOX IMVI melanoma): 35.5 µM
TGI (HL-60(TB) leukemia): 37.2 µM
TGI (DU-145 prostate): 24.6 µM
TGI (UACC-257 melanoma): 36.4 µM
TGI (SNB-75 CNS): 44.5 µM
TGI (CCRF-CEM leukemia): 57.4 µM
TGI (MALME-3M melanoma): 37.5 µM
TGI (BT-549 breast): 45.5 µM
TGI (NCI-H23 lung): 42.3 µM
TGI (OVCAR-4 ovarian): 51.4 µM
TGI (SR leukemia): 59.7 µM
TGI (UO-31 renal): 34.7 µM
TGI (NCI-H522 lung): 42.8 µM
TGI (SF-295 CNS): 33 µM
TGI (NCI-H226 lung): 79.9 µM
TGI (OVCAR-8 ovarian): 67.4 µM

c1ccc(-c2cc(-c3cc(-c4ccccc4)no3)on2)cc1
TGI (M14 melanoma): > 100 µM
TGI (HCC-2998 colon): > 100 µM
TGI (MCF7 breast): > 100 µM
TGI (LOX IMVI melanoma): > 100 µM
TGI (HL-60(TB) leukemia): > 100 µM
TGI (DU-145 prostate): > 100 µM
TGI (UACC-257 melanoma): > 100 µM
TGI (CCRF-CEM leukemia): 78.8 µM
TGI (MALME-3M melanoma): > 100 µM
TGI (BT-549 breast): > 100 µM
TGI (NCI-H23 lung): > 100 µM
TGI (OVCAR-4 ovarian): 85.9 µM
TGI (SR leukemia): 31.3 µM
TGI (UO-31 renal): > 100 µM
TGI (NCI-H522 lung): > 100 µM
TGI (SF-295 CNS): > 100 µM
TGI (NCI-H226 lung): > 100 µM
TGI (OVCAR-8 ovarian): 30.2 µM

CCOC(=O)C1C(=O)CC(C)(O)C(C(=O)OCC)C1c1ccc(OC)cc1 (stereo not given)
TGI (M14 melanoma): > 100 µM
TGI (HCC-2998 colon): > 100 µM
TGI (MCF7 breast): > 100 µM
TGI (LOX IMVI melanoma): > 100 µM
TGI (HL-60(TB) leukemia): > 100 µM
TGI (DU-145 prostate): > 100 µM
TGI (UACC-257 melanoma): > 100 µM
TGI (SNB-75 CNS): > 100 µM
TGI (CCRF-CEM leukemia): > 100 µM
TGI (MALME-3M melanoma): > 100 µM
TGI (BT-549 breast): > 100 µM
TGI (NCI-H23 lung): > 100 µM
TGI (OVCAR-4 ovarian): > 100 µM
TGI (SR leukemia): > 100 µM
TGI (UO-31 renal): > 100 µM
TGI (NCI-H522 lung): > 100 µM
TGI (SF-295 CNS): > 100 µM
TGI (NCI-H226 lung): > 100 µM
TGI (OVCAR-8 ovarian): > 100 µM

CC1=C/C(=C(/c2ccc(O)c(C)c2)c2ccccc2C(=O)O)C=CC1=O
TGI (M14 melanoma): 32.5 µM
TGI (HCC-2998 colon): 34.5 µM
TGI (MCF7 breast): 34.5 µM
TGI (LOX IMVI melanoma): 35.9 µM
TGI (HL-60(TB) leukemia): 43.6 µM
TGI (DU-145 prostate): 35.6 µM
TGI (UACC-257 melanoma): 35.8 µM
TGI (SNB-75 CNS): 35.8 µM
TGI (CCRF-CEM leukemia): 45.1 µM
TGI (MALME-3M melanoma): 46.8 µM
TGI (BT-549 breast): 39 µM
TGI (NCI-H23 lung): 36.6 µM
TGI (OVCAR-4 ovarian): 33.9 µM
TGI (SR leukemia): 47 µM
TGI (UO-31 renal): 33.6 µM
TGI (NCI-H522 lung): 42.7 µM
TGI (SF-295 CNS): 44.2 µM
TGI (NCI-H226 lung): 44.5 µM
TGI (OVCAR-8 ovarian): 36.3 µM

CCOC(=O)C(SCCO)C(C(=O)OCC)n1cc(C)c(=O)[nH]c1=O (stereo not given)
TGI (M14 melanoma): 25 µM
TGI (HCC-2998 colon): > 78.9 µM
TGI (MCF7 breast): 43.5 µM
TGI (LOX IMVI melanoma): 19.2 µM
TGI (HL-60(TB) leukemia): 4.88 µM
TGI (DU-145 prostate): > 100 µM
TGI (UACC-257 melanoma): > 84.6 µM
TGI (SNB-75 CNS): > 100 µM
TGI (CCRF-CEM leukemia): 8.1 µM
TGI (MALME-3M melanoma): 38.6 µM
TGI (BT-549 breast): > 85.1 µM
TGI (NCI-H23 lung): > 78.7 µM
TGI (OVCAR-4 ovarian): > 74.7 µM
TGI (SR leukemia): 35.5 µM
TGI (UO-31 renal): > 62.8 µM
TGI (NCI-H522 lung): 17.6 µM
TGI (SF-295 CNS): > 100 µM
TGI (NCI-H226 lung): > 61.4 µM
TGI (OVCAR-8 ovarian): > 62.7 µM
